Laboratory results published in ChEMBL document CHEMBL1201862, “PubChem BioAssay data set” (2004).
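In this assay, cells in 96-well plates receive the compound at five concentrations for 48 hours. Endpoints are linearly interpolated between the surrounding concentrations. At the GI50, growth is halved.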 Calls of active or inactive are those of the source. Cut-off read from the data, not from the text of the source: active = GI50 up to about 1.1 µM and inactive = higher.

Experiments:
Assay in all cases: NCI anticancer screen, dose series, 48 h
SF-539 = tested on: SF-539
HOP-92 = tested on: HOP-92
SW-620 = tested on: SW-620
SK-MEL-28 = tested on: SK-MEL-28
786-0 = tested on: 786-0
SF-295 = tested on: SF-295
HOP-18 = tested on: HOP-18
OVCAR-8 = tested on: OVCAR-8
HCT-15 = tested on: HCT-15
COLO 205 = tested on: COLO 205
HL-60 = tested on: HL-60
IGROV-1 = tested on: IGROV-1
HOP-62 = tested on: HOP-62
M14 = tested on: M14
SNB-78 = tested on: SNB-78
OVCAR-4 = tested on: OVCAR-4
XF498 = tested on: XF498
HCT-116 = tested on: HCT-116
SK-OV-3 = tested on: SK-OV-3
LXFL 529 = tested on: LXFL 529
NCI-H23 = tested on: NCI-H23
SN12C = tested on: SN12C
U-251 = tested on: U-251
A549 = tested on: A549
M19-MEL = tested on: M19-MEL
UACC-62 = tested on: UACC-62
ACHN = tested on: ACHN
KM12 = tested on: KM12
Malme-3M = tested on: Malme-3M
HCC 2998 = tested on: HCC 2998
HT-29 = tested on: HT-29
NCI-H226 = tested on: NCI-H226
SK-MEL-5 = tested on: SK-MEL-5
OVCAR-3 = tested on: OVCAR-3
CCRF-CEM = tested on: CCRF-CEM
SNB-19 = tested on: SNB-19
RXF 393 = tested on: RXF 393
NCI-H460 = tested on: NCI-H460
KM-20L2 = tested on: KM-20L2
SF-268 = tested on: SF-268
NCI-H522 = tested on: NCI-H522
DMS-114 = tested on: DMS-114
DMS-273 = tested on: DMS-273
SNB-75 = tested on: SNB-75
EKVX = tested on: EKVX
UO-31 = tested on: UO-31
DLD-1 = tested on: DLD-1
OVCAR-5 = tested on: OVCAR-5
UACC-257 = tested on: UACC-257
A498 = tested on: A498
LOX IMVI = tested on: LOX IMVI
TK-10 = tested on: TK-10
SK-MEL-2 = tested on: SK-MEL-2
MOLT-4 = tested on: MOLT-4
SR = tested on: SR
RPMI-8226 = tested on: RPMI-8226
K562 = tested on: K562

## CCCCCCCCCCCCC(Br)C(=O)SCCNC(=O)CCNC(=O)[C@@H](O)C(C)(C)COP(=O)(O)OP(=O)(O)OCC1OC(n2cnc3c(N)ncnc32)C(O)C1OP(=O)(O)O (stereo not given in full)
SF-539
  GI50: > 56.5 µM (inactive)
HOP-92
  GI50: > 56.5 µM (inactive)
SW-620
  GI50: > 56.5 µM (inactive)
SK-MEL-28
  GI50: > 56.5 µM (inactive)
786-0
  GI50: > 56.5 µM (inactive)
SF-295
  GI50: > 56.5 µM (inactive)
HOP-18
  GI50: > 56.5 µM (inactive)
OVCAR-8
  GI50: 54.3 µM (inactive)
HCT-15
  GI50: > 56.5 µM
COLO 205
  GI50: > 56.5 µM (inactive)
HL-60
  GI50: > 56.5 µM (inactive)
IGROV-1
  GI50: > 56.5 µM (inactive)
HOP-62
  GI50: > 56.5 µM (inactive)
M14
  GI50: > 56.5 µM (inactive)
SNB-78
  GI50: > 56.5 µM (inactive)
OVCAR-4
  GI50: > 56.5 µM (inactive)
XF498
  GI50: > 56.5 µM (inactive)
HCT-116
  GI50: 22 µM (inactive)
SK-OV-3
  GI50: > 56.5 µM (inactive)
LXFL 529
  GI50: > 56.5 µM (inactive)
NCI-H23
  GI50: > 56.5 µM (inactive)
SN12C
  GI50: > 56.5 µM (inactive)
U-251
  GI50: 33.7 µM (inactive)
A549
  GI50: > 56.5 µM (inactive)
M19-MEL
  GI50: > 56.5 µM (inactive)
UACC-62
  GI50: > 56.5 µM (inactive)
ACHN
  GI50: > 56.5 µM (inactive)
KM12
  GI50: > 56.5 µM (inactive)
Malme-3M
  GI50: > 56.5 µM (inactive)
HCC 2998
  GI50: > 56.5 µM (inactive)
HT-29
  GI50: > 56.5 µM (inactive)
NCI-H226
  GI50: > 56.5 µM (inactive)
SK-MEL-5
  GI50: > 56.5 µM (inactive)
OVCAR-3
  GI50: > 56.5 µM (inactive)
CCRF-CEM
  GI50: 35.4 µM (inactive)
SNB-19
  GI50: > 56.5 µM (inactive)
RXF 393
  GI50: > 56.5 µM (inactive)
NCI-H460
  GI50: 22.5 µM (inactive)
KM-20L2
  GI50: > 56.5 µM (inactive)
SF-268
  GI50: > 56.5 µM (inactive)
NCI-H522
  GI50: > 56.5 µM (inactive)
DMS-114
  GI50: > 56.5 µM (inactive)
DMS-273
  GI50: > 56.5 µM (inactive)
SNB-75
  GI50: > 56.5 µM (inactive)
EKVX
  GI50: > 56.5 µM (inactive)
UO-31
  GI50: > 56.5 µM (inactive)
DLD-1
  GI50: > 56.5 µM (inactive)
OVCAR-5
  GI50: > 56.5 µM (inactive)
UACC-257
  GI50: 14.6 µM (inactive)
A498
  GI50: > 56.5 µM (inactive)
LOX IMVI
  GI50: 28.1 µM (inactive)
TK-10
  GI50: > 56.5 µM (inactive)
SK-MEL-2
  GI50: > 56.5 µM (inactive)

## Cc1nc2nnnn2c2c1C(=O)Nc1ccccc1N2
SF-539
  GI50: > 100 µM (inactive)
HOP-92
  GI50: > 100 µM (inactive)
SW-620
  GI50: > 100 µM (inactive)
SK-MEL-28
  GI50: > 100 µM (inactive)
786-0
  GI50: > 100 µM (inactive)
SF-295
  GI50: > 100 µM (inactive)
HOP-18
  GI50: > 100 µM (inactive)
OVCAR-8
  GI50: > 100 µM (inactive)
MOLT-4
  GI50: 43.2 µM (inactive)
SR
  GI50: 18.7 µM (inactive)
COLO 205
  GI50: > 100 µM (inactive)
HL-60
  GI50: > 100 µM (inactive)
IGROV-1
  GI50: > 100 µM (inactive)
HOP-62
  GI50: 71.9 µM (inactive)
M14
  GI50: > 100 µM (inactive)
SNB-78
  GI50: > 100 µM (inactive)
XF498
  GI50: > 100 µM (inactive)
HCT-116
  GI50: > 100 µM (inactive)
RPMI-8226
  GI50: > 100 µM (inactive)
SK-OV-3
  GI50: > 100 µM (inactive)
LXFL 529
  GI50: > 100 µM (inactive)
NCI-H23
  GI50: > 100 µM (inactive)
SN12C
  GI50: > 100 µM (inactive)
U-251
  GI50: > 100 µM (inactive)
A549
  GI50: 62.1 µM (inactive)
M19-MEL
  GI50: > 100 µM (inactive)
UACC-62
  GI50: > 100 µM (inactive)
ACHN
  GI50: 73.3 µM (inactive)
KM12
  GI50: > 100 µM (inactive)
Malme-3M
  GI50: > 100 µM (inactive)
HCC 2998
  GI50: > 100 µM (inactive)
HT-29
  GI50: > 100 µM (inactive)
K562
  GI50: > 100 µM (inactive)
NCI-H226
  GI50: > 100 µM (inactive)
OVCAR-3
  GI50: > 100 µM (inactive)
CCRF-CEM
  GI50: > 100 µM (inactive)
SNB-19
  GI50: > 100 µM (inactive)
RXF 393
  GI50: > 100 µM (inactive)
NCI-H460
  GI50: 28.4 µM (inactive)
KM-20L2
  GI50: > 100 µM (inactive)
SF-268
  GI50: > 100 µM (inactive)
NCI-H522
  GI50: > 100 µM (inactive)
DMS-114
  GI50: > 100 µM (inactive)
DMS-273
  GI50: > 100 µM (inactive)
SNB-75
  GI50: > 100 µM (inactive)
EKVX
  GI50: 79.8 µM (inactive)
UO-31
  GI50: > 100 µM (inactive)
DLD-1
  GI50: > 100 µM (inactive)
UACC-257
  GI50: > 100 µM (inactive)
LOX IMVI
  GI50: > 100 µM (inactive)
TK-10
  GI50: > 100 µM (inactive)
SK-MEL-2
  GI50: > 100 µM (inactive)
